From ChEMBL document CHEMBL1136382, “Spiro[pyrrolidine-2,2'-adamantanes]: synthesis, anti-influenza virus activity and conformational properties” (Bioorg Med Chem Lett, 2003) come the findings set out here.

The test system of test [1] is Epithelial cell. As to the kind of experiment: Antiviral activity against influenza B (Hong kong/5/72) in human epithelial cells. Type of test: functional, cell-based.
Test [2] has as its system MDCK. Kind of test: Minimum cytotoxic concentration required to cause a microscopically detectable alteration of MDCK, Madin-Darby canine kidney cell morphology. Type of test: functional, Canis lupus familiaris.
For test [3], the system named is MDCK. Kind of test: cells. Particulars: Canis lupus familiaris.

The EC50 is the concentration that produces a half-maximal response. The low end stands for an effect from little substance, the high end for a need for much substance.

Bounds are passed on as bounds.

`C1CNC2(C1)C1CC3CC(C1)CC2C3` (stereo not given): the results for the EC50 in test [1] and in test [3] were more than 1.1 mM and 1.8 µM, respectively. Moreover, in test [2], the MCC50 is more than 610.5 µM.
For `CC1CCC2(C3CC4CC(C3)CC2C4)N1C` (stereo not given) the same measures were 0.149 mM, 2.7 µM and 55.3 µM.
`CC1CCN(C)C12C1CC3CC(C1)CC2C3` (stereo not given): the EC50 was more than 0.746 mM in test [1] and 12.5 µM in test [3]. The MCC50 in test [2] is more than 60 µM.
On to `CC1CNC2(C1)C1CC3CC(C1)CC2C3` (stereo not given), for which the EC50 in test [1] amounted to 1.04 mM; in test [3], 3.3 µM. The MCC50 in test [2] was 313.6 µM.
For the molecule `CC1CCC2(N1)C1CC3CC(C1)CC2C3` (stereo not given), the values for the 50% effective concentration (EC50) in test [1] and in test [3] were more than 1.04 mM and 2.5 µM, respectively. In test [2], this molecule gave an MCC50 of more than 414 µM.
For the molecule `CN1CCCC12C1CC3CC(C1)CC2C3` (stereo not given), the EC50 is more than 1.04 mM in test [1] and 2.9 µM in test [3]. In test [2], this molecule returned an MCC50 of 357 µM.
For `CC1CN(C)C2(C1)C1CC3CC(C1)CC2C3` (stereo not given), the EC50 was more than 0.746 mM in test [1] and 3.3 µM in test [3]. In addition, in test [2], the MCC50 is more than 226 µM.
Turning to `CC1CCNC12C1CC3CC(C1)CC2C3` (stereo not given), the EC50 in test [1] is more than 1.04 mM; in test [3], 3.7 µM. Besides, in test [2], the MCC50 is more than 280 µM.
Turning to `NC12CC3CC(CC(C3)C1)C2` [AMANTADINE], the concentration for a half-maximal effect (EC50) in test [1] is more than 1.33 mM; in test [3], 1.1 µM. In addition, the MCC50 in test [2] is more than 1211.8 µM.
With `NC(=O)c1ncn([C@@H]2O[C@H](CO)[C@@H](O)[C@H]2O)n1` [RIBAVIRIN], the EC50 in test [1] is more than 1.02 mM; in test [3], 3.7 µM. In test [2], this molecule had an MCC50 of more than 276.9 µM.
